These are literature values, as cited in patent US9597322B2, “Otamixaban for use in the treatment of non-ST elevation acute coronary syndrome in patients planned to undergo coronary artery bypass grafting” (SANOFI, priority 2012, dated 2017).

Like-named read-outs stand apart in the source and are kept apart here.

For one series, the target named is T1, factor Xa (Homo sapiens, UniProt P00742).
T1 construct: host or cells: blood of patients (endogenous)
As to conditions: patients with stable coronary artery disease on usual comedication, some with mild renal impairment; Hinder et al. 2006; cited from earlier work.

For series [1], the system named is thrombosis. Particulars: porcine; cited from earlier work.
The test system of series [2] is prothrombin fragments 1+2. As to conditions: highest dose regimen; Cohen et al. 2007; cited from earlier work.
The test system of series [3] is thrombosis. As to conditions: canine; cited from earlier work.
Series [4] has as its target factor Xa assembled in the prothrombinase complex (Factor Xa, Factor Va, calcium and phospholipid) (Homo sapiens, UniProt P00742). Particulars: direct, independent of antithrombin III; cited from earlier work.
The next series addresses free factor Xa (Homo sapiens, UniProt P00742). As to conditions: direct, independent of antithrombin III; cited from earlier work.
The test system of series [5] is thrombosis. Particulars: rodent; cited from earlier work.

Sequence of factor Xa assembled in the prothrombinase complex (Factor Xa, Factor Va, calcium and phospholipid) (P00742 235-488 limits assumed): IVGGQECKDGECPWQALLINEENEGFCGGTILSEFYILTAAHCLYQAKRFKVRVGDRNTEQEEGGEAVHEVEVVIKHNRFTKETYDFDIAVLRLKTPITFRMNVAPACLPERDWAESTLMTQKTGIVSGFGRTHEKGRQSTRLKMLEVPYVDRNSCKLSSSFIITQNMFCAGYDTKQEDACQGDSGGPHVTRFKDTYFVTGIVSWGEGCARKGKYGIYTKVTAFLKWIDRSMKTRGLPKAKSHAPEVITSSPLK
Sequence of factor Xa assembled in the prothrombinase complex (Factor Xa, Factor Va, calcium and phospholipid) (P00742 41-179 partner limits assumed): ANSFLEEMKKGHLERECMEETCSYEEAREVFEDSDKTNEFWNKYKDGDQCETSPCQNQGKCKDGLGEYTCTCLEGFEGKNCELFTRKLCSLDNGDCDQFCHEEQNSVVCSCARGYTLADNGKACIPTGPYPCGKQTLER
Sequence of factor Xa assembled in the prothrombinase complex (Factor Xa, Factor Va, calcium and phospholipid) (P12259 29-737 partner limits assumed): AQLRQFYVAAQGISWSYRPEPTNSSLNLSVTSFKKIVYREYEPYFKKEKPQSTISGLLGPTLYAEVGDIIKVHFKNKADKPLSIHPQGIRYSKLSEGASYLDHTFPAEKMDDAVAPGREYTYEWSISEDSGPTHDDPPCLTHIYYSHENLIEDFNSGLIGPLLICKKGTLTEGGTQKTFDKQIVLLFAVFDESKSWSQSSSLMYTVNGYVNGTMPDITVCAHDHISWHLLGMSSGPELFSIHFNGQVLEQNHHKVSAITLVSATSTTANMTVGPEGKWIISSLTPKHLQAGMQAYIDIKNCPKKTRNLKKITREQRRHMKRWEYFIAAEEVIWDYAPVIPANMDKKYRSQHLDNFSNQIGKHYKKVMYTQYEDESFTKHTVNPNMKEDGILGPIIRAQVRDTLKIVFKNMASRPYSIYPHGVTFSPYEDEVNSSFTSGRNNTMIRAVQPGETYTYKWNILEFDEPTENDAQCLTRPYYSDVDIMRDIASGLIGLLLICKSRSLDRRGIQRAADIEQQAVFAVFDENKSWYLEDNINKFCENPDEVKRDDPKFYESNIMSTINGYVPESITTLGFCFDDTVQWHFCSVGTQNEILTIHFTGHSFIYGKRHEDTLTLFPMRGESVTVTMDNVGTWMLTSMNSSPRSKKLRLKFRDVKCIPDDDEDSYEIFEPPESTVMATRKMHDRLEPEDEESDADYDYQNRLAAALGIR
Sequence of factor Xa assembled in the prothrombinase complex (Factor Xa, Factor Va, calcium and phospholipid) (P12259 1574-2224 partner limits assumed): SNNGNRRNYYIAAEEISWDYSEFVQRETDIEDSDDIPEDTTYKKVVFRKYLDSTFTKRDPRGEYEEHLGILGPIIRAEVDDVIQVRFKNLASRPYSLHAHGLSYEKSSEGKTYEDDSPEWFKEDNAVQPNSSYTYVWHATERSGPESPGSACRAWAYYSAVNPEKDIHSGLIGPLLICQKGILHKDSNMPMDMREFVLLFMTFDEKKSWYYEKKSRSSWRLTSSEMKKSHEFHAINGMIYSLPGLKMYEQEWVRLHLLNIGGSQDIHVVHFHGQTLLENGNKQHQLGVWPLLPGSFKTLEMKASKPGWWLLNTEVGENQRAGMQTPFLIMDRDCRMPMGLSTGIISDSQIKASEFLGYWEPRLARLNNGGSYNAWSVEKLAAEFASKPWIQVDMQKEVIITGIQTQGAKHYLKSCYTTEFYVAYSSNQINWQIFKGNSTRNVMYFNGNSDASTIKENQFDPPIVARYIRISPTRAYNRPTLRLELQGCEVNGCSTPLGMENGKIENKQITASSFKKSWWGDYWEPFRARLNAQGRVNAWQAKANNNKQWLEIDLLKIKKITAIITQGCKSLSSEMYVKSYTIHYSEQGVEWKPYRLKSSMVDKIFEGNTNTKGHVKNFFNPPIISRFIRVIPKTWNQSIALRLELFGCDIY
Sequence of free factor Xa (P00742 235-488 limits assumed): as the sequence (P00742 235-488 limits assumed) above
Sequence of free factor Xa (P00742 41-179 partner limits assumed): as the sequence (P00742 41-179 partner limits assumed) above
T1 sequence (P00742 235-488 limits assumed): as the sequence (P00742 235-488 limits assumed) above
T1 sequence (P00742 41-179 partner limits assumed): as the sequence (P00742 41-179 partner limits assumed) above

For `COC(=O)C(Cc1cccc(C(=N)N)c1)[C@@H](C)NC(=O)c1ccc(-c2cc[n+]([O-])cc2)cc1` (mixture of isomers) [Otamixaban, (2R,3R)-2-(3-Carbamimidoyl-benzyl)-3-[4-(1-oxy-pyridin-4-yl)benzoylamino]-butyric acid methyl ester], the “factor Xa inhibition in patients” value on factor Xa is listed as “dose-dependent, rapid direct factor Xa inhibition”. Besides, the “efficacy in model of thrombosis” value in the series on thrombosis [1], in the series with thrombosis [3] and in the series on thrombosis [5] was “highly efficacious” throughout. The “reduction of prothrombin fragments 1+2 versus unfractionated heparin” value in series [2] was “significantly more than unfractionated heparin”. Also, the “inhibition of factor Xa assembled in the prothrombinase complex” value in series [4] is “inhibited”. In addition, the “inhibition of free factor Xa” value on free factor Xa is listed as “inhibited”.
